Reference: PMC2151243 (British Journal of Cancer, 1998)
“And” between values parts separate entries of the source, which are not always exact repeats. Equal values may be shown once. “Also recorded” adds a separate entry of the source.

Key:
[1] = system: Sheep antiserum to ZD1694 (S37B14); assay: Radioimmunoassay: cross-reaction of S37B14 antiserum; format: binding; settings: for Cross-reaction of S37B14 antiserum (%): relative amount of ZD1694 and cross-reactant required to inhibit antibody binding of radiolabel by 50%
From the text: (§1) British Joumal of Cancer (1998) 77(2), 221-226 ? […] Tomudex is now available for the treat- ment of advanced colorectal cancer in several countries. […] The limit of detection of this assay for plasma was 0.2 g1M when a solid-phase extraction was used. […] Separation of polyglutamated metabo- lites by HPLC was followed by quantitation in fractions using radiochemical analysis (Jackman et al, 1991c; Gibson et al, 1993) or by measuring inhibition of TS (Sikora et al, 1988). […] The dog was chosen as an additional model, because, unlike mice, plasma levels of thymidine are low and this species is much more sensitive to the effects of TS inhibitors than rodents. […] Acetonitrile was from Fisons, Dextran T70 from Pharmacia and all other chemicals from Sigma. Solutions were prepared with deionized water. […] Stock solutions (10 mM) were prepared in 0.15 M sodium bicar- bonate and stored at -20?C. For the mouse studies, the drug was formulated in 0.05 M sodium bicarbonate and the pH was adjusted to 8.5-9.0. Radioimmunoassay The assay diluent was 0.05 M phosphate buffer pH 7.4, containing 1 g 1-' gelatin and 6 g 1-' sodium chloride (PBSG). Initially, all dilutions and dispensing of standards and samples were made with a Dilutrend diluter, but a Multiprobe (Canberra Packard) auto- mated liquid-handling system was later programmed to perform these steps in the assay. […] Samples were assayed at three appropriate dilutions to ensure that the results of at least two dilutions fell on the linear portion of the stan- dard curve, and samples were reassayed at different dilutions if necessary. The antiserum was diluted in PBSG so that approxi- mately 40% of total radioactivity was bound (Bo) to antibody. This dilution was previously determined from an antiserum dilution curve and was 1:300 to 1:500 depending on the batch of radiolabel used. […] Diluted standards and samples (0.1 ml) were added in duplicate to numbered LP3 tubes (Luckham) or to deep-well blocks (Beckman) with 0.3 ml of assay diluent, 0.1 ml of diluted anti- serum and 0.1 ml of diluted label, mixed and left to stand in iced water for 1 h. Each assay included total counts and non-specific- binding tubes, containing only the radiolabel and buffer, and zero- standard-binding tubes (Bo), which contained only radiolabel and antiserum. The antibody-bound radiolabel was separated from unbound radiolabel by the addition of ice-cold dextran-coated charcoal [2.5% (w/v) activated charcoal (Sigma) coated with 0.25% (w/v) Dextran T-70 (Pharmacia)] to all but the total-counts tubes for 10 min. After centrifugation at 1000 g for 10 min at 4?C, 0.5 ml aliquots of supematant were taken from each assay tube for scintillation counting in 4.0 ml of Ultima gold scintillant (Canberra-Packard). […] The radioimmunoassays were carried out at the Institute of Cancer Research. […] The limit of detection for 6-8 x 10^6 cells is 0.05 µM intracellular concentration. […] Plasma was immediately separated from the; approximately blood by microcentrifugation and stored at -20?C until assayed. Liver and kidney samples were immediately frozen on solid carbon dioxide. Gut epithelium samples were obtained 1 day after drug treatment.

[2] = parameters: method as in Aherme et al, 1996b; settings: ref Aherme et al, 1996b; cited from earlier work
[3] = Mouse pharmacokinetic studies: plasma and tissue levels by radioimmunoassay; format: in vivo, female DBA2 mice; settings: female, plasma, ip
From the text: as §1

[4] = Pharmacokinetic studies in dogs: plasma and tissue levels by radioimmunoassay; format: in vivo, Alderley Park Beagle dogs
From the text: British Joumal of Cancer (1998) 77(2), 221-226 ? […] Tomudex is now available for the treat- ment of advanced colorectal cancer in several countries. […] The limit of detection of this assay for plasma was 0.2 g1M when a solid-phase extraction was used. […] Separation of polyglutamated metabo- lites by HPLC was followed by quantitation in fractions using radiochemical analysis (Jackman et al, 1991c; Gibson et al, 1993) or by measuring inhibition of TS (Sikora et al, 1988). […] The dog was chosen as an additional model, because, unlike mice, plasma levels of thymidine are low and this species is much more sensitive to the effects of TS inhibitors than rodents. […] Acetonitrile was from Fisons, Dextran T70 from Pharmacia and all other chemicals from Sigma. Solutions were prepared with deionized water. […] Stock solutions (10 mM) were prepared in 0.15 M sodium bicar- bonate and stored at -20?C. For the mouse studies, the drug was formulated in 0.05 M sodium bicarbonate and the pH was adjusted to 8.5-9.0. Radioimmunoassay The assay diluent was 0.05 M phosphate buffer pH 7.4, containing 1 g 1-' gelatin and 6 g 1-' sodium chloride (PBSG). […] The antiserum was diluted in PBSG so that approxi- mately 40% of total radioactivity was bound (Bo) to antibody. This dilution was previously determined from an antiserum dilution curve and was 1:300 to 1:500 depending on the batch of radiolabel used. […]

L1210 cells = system: L1210 cells; parameters: method as in Jackman et al, 1995c; settings: L1210, 0.1 µM, 24 h; ref Jackman et al, 1995c; cited from earlier work
L1210:RD1694 cells = system: L1210:RD1694 cells; parameters: method as in Jackman et al, 1995c; settings: resistant line, after 24 h; ref Jackman et al, 1995c; cited from earlier work
[5] = parameters: method as in Jodrell et al, 1991; settings: mice, 100 mg kg-1, HPLC; ref Jodrell et al, 1991; cited from earlier work
[6] = parameters: method as in Judson et al, 1996; settings: man, ref Judson et al, 1996, cited from earlier work
[7] = parameters: method as in Jackman et al, 1995a; settings: mice, ref Jackman et al, 1995a, cited from earlier work
[8] = system: L5178Y TK-/- mouse lymphoma; parameters: method as in Jackman et al, 1991b; settings: single i.p. injection 10 mg kg-1; ref Jackman et al, 1991b; cited from earlier work
[9] = system: thymidine salvage competent models; parameters: method as in Jackman et al, 1991a and b; settings: repeated treatment over 5 days; ref Jackman et al, 1991a and b; cited from earlier work
[10] = target: Thymidylate synthase (TS; EC 2.1.1.45), mouse enzyme; settings: ref Jackman et al, 1991a, Gibson et al, 1993, read-out: Kj for mouse enzyme; cited from earlier work
[11] = mouse, in vivo; cited from earlier work

Question: With `Cc1nc2ccc(CN(C)c3ccc(C(=O)NC(CCC(=O)NC(CCC(=O)NC(CCC(=O)NC(CCC(=O)NC(CCC(=O)NC(CCC(=O)O)C(=O)O)C(=O)O)C(=O)O)C(=O)O)C(=O)O)C(=O)O)s3)cc2c(=O)[nH]1` (stereo not shown) [Hexaglutamate] as the compound, how does the “Cross-reaction of S37B14 antiserum (%)” value [1] read?
Answer: 100%

Question: With `Cc1nc2ccc(CN(C)c3ccc(C(=O)NC(CCC(=O)NC(CCC(=O)O)C(=O)O)C(=O)O)s3)cc2c(=O)[nH]1` (stereo not shown) [Diglutamate] as the compound, how does the “Cross-reaction of S37B14 antiserum (%)” value [1] read?
Answer: 90%

Question: With `C#CCN(Cc1cc2c(=O)[nH]c(C)nc2cc1C)c1ccc(C(=O)N[C@@H](CCc2nnn[nH]2)C(=O)O)c(F)c1` [ZD933 1] as the compound, how does the “tissue to plasma ratios” value [2] read?
Answer: low tissue to plasma ratios

Question: What does the source list for `Cc1nc2ccc(CN(C)c3ccc(C(=O)N[C@@H](CCC(=O)O)C(=O)O)s3)cc2c(=O)[nH]1` [ZD1694, N-[5-[N-(3,4-dihydro-2-methyl-4-oxoquinazolin-6-ylmethyl)-N-methylamino]-2-thenoyl]-L-glutamic acid]?
Answer: IC50 ([1]; ZD1694 standard curve, read-out: mean dose at 50% inhibition of binding): 1.47 nM; Cross-reaction of S37B14 antiserum (%) [1]: 100%; concentration at 1 day ([3]; DBA2, mouse, single i.p. 1 mg kg-1, day 1): 2.26 ng/mL; concentration at 1 day ([3]; DBA2, mouse, single i.p. 10 mg kg-1, day 1): 7.18 nM; concentration at 1 day ([3]; DBA2, mouse, single i.p. 100 mg kg-1, day 1): 30.7 nM; concentration at 4 day ([3]; DBA2, mouse, single i.p. 100 mg kg-1, day 4): 2.39 nM; half-life ([3]; mouse, DBA2 mice, 5 mg kg-1 i.p., non-compartmental model, read-out: plasma elimination phase (half-life) (converted)): ~2.7 h; concentration at 28 day ([4]; Alderley Park Beagle, dog, plasma, iv, 0.2 mg kg-1 single i.v. bolus, 28 days after administration): ~0.4 ng/mL and ~0.85 nM; gastrointestinal tissue drug concentrations ([4]; at 28 days, limit of detection 0.015 nmol g-1): near to the limit of detection; also recorded: at or near the limit of detection; intracellular concentration of ZD1694 by radioassay (L1210 cells): 3.8 gM; level of total drug ZD1694 estimated by radioassay (L1210:RD1694 cells): 0.44 gM; plasma half-life [5]: ~0.5 h; third phase half-life ([6]; plasma): 257 h; drug measured in the plasma ([6]; up to 4 weeks after drug administration): 1 to 10 ng/mL; radioactivity in the tissues present as polyglutamates ([7]; 24 h after tritiated ZD1694 5 mg kg-1): ~80%; polyglutamates in mouse plasma ([7]; tritiated ZD1694): No polyglutamates were found; anti-tumour effect [8]: curative; anti-tumour effect [9]: led to anti- tumour activity

Question: Which “Cross-reaction of S37B14 antiserum (%)” value [1] does the source give for `CN1c2c(nc(N)[nH]c2=O)NCC1CNc1ccc(C(=O)N[C@@H](CCC(=O)O)C(=O)O)cc1` (stereo partly shown) [Methyl-THFA] here?
Answer: < 0.01%

Question: For `Cc1nc2ccc(CN(C)c3ccc(C(=O)N[C@@H](CCC(=O)N[C@@H](CCC(=O)N[C@@H](CCC(=O)N[C@@H](CCC(=O)N[C@@H](CCC(=O)O)C(=O)O)C(=O)O)C(=O)O)C(=O)O)C(=O)O)s3)cc2c(=O)[nH]1` [Pentaglutamate], which “Cross-reaction of S37B14 antiserum (%)” value [1] is on record?
Answer: 110%

Question: Which “Cross-reaction of S37B14 antiserum (%)” value [1] does the source give for `Nc1nc2c(c(=O)[nH]1)N(C=O)C(CNc1ccc(C(=O)N[C@@H](CCC(=O)O)C(=O)O)cc1)CN2` (stereo partly shown) [Leucovorin] here?
Answer: < 0.01%

Question: Which results are given for `Cc1nc2ccc(CN(C)c3ccc(C(=O)NC(CCC(=O)NC(CCC(=O)NC(CCC(=O)NC(CCC(=O)O)C(=O)O)C(=O)O)C(=O)O)C(=O)O)s3)cc2c(=O)[nH]1` (stereo not shown) [Tetraglutamate]?
Answer: Cross-reaction of S37B14 antiserum (%) [1]: 110%; Ki [10]: 1 nM

Question: With `Cc1nc2ccc(CN(C)c3ccc(C(=O)NC(CCC(=O)NC(CCC(=O)NC(CCC(=O)O)C(=O)O)C(=O)O)C(=O)O)s3)cc2c(=O)[nH]1` (stereo not shown) [Triglutamate] as the compound, how does the “Cross-reaction of S37B14 antiserum (%)” value [1] read?
Answer: 92%

Question: For `C#CCN(Cc1cc2c(=O)[nH]c(C)nc2cc1C)c1ccc(C(=O)N[C@@H](CCC(=O)N[C@H](CCC(=O)O)C(=O)O)C(=O)O)c(F)c1` [CB30900], which “liver levels relative to plasma levels” value [11] is on record?
Answer: sixfold higher
